Results as given in article PMC6071684, “Defining the hydrophobic interactions that drive competence stimulating peptide (CSP)-ComD binding in Streptococcus pneumoniae” (Beilstein Journal of Organic Chemistry, 2018).
Where a SMILES comes first, the peptide text is derived from it. [ ]: non-standard residue; d: D form. Phg = N[C@H](C(=O)O)c1ccccc1; Nle = CCCC[C@H](N)C(=O)O; Nva = CCC[C@H](N)C(=O)O

Legend:
ComD2 receptor = ComD2 receptor (Streptococcus pneumoniae serotype 4, UniProt A0A0H2US84); experiment: cell-based
Experimental: (§1) To assess QS modulation, we utilized the β-gal reporter strains, constructed by Lau and co-worker. In these strains the lacZ gene is under the control of QS (pcomX). Thus, upon QS activation, ComE will bind pcomX and transcribe lacZ (in addition to upregulation of ComX). ComD modulation can therefore be quantified by measuring β-gal activity. The peptides were first screened for their ability to activate/inhibit the ComD1 and ComD2 receptors at high concentration (10 µM).
(§2) To examine the ability of the synthesized CSP analogs to modulate the ComD receptors, and thus the QS circuit in S. pneumoniae, β-galactosidase assays were performed using D39pcomX::lacZ (group I) and TIGR4pcomX::lacZ (group II) reporter strains as described in [19].
(§3) Bacterial growth conditions. Bacteria from a freezer stock were grown as described in [19]. Briefly, the bacteria were streaked into a THY agar plate supplemented with 5% donor horse serum and chloramphenicol at a final concentration of 4 µg/mL. The plate was incubated for 8 h in a CO2 incubator (37 °C with 5% CO2). Fresh colonies (single colony for D39pcomX::lacZ; multiple colonies for TIGR4pcomX::lacZ) were picked into sterilized cultural tubes containing 5 mL of THY broth supplemented with chloramphenicol at a final concentration of 4 µg/mL and the cultures were incubated in a CO2 incubator overnight (15 h). Overnight cultures were then diluted (1:50 for D39pcomX::lacZ; 1:10 for TIGR4pcomX::lacZ) with THY and the resulting solution was incubated in a CO2 incubator for 3–4 hours, until the bacteria reached early exponential stage (0.30–0.35 for D39pcomX::lacZ; 0.20–0.25 for TIGR4pcomX::lacZ) as determined by using a plate reader.
(§4) β-Galactosidase assay. Activation assays. […] Briefly, an initial activation screening was performed at high concentration (10 µM) for all CSP analogs. 2 µL of 1 mM solution of CSP analogs in dimethyl sulfoxide (DMSO) were added in triplicate to a clear 96-well microtiter plate. […] 2 µL of DMSO was added in triplicate and served as the negative control for both groups. Then, 198 µL of bacterial culture was added to each well containing CSP and analogs, the plate was incubated at 37 °C for 30 minutes, and the OD600nm was measured. In order to measure the β-galactosidase activity in the pneumococcal culture, the cells were lysed by incubating the culture for 30 minutes at 37 °C with 20 µL of 0.1% Triton X-100. In a new plate, 100 µL of Z-buffer solution (60.2 mM Na2HPO4, 45.8 mM NaH2PO4, 10 mM KCl, and 1.0 mM MgSO4 in 18 MΩ H2O; pH was adjusted to 7.0 and the buffer was sterilized before use) containing 2-nitrophenyl-β-D-galactopyranoside (ONPG) at a final concentration of 0.4 mg/mL was added, followed by 100 µL of lysate, and the plate was incubated for 3 hours at 37 °C. The reaction was stopped by adding 50 µL of 1 M sodium carbonate solution, and the OD420nm and OD550nm were measured using a plate reader. […] For calculation of Miller units, please see data analysis below.
(§5) Analysis of activation/inhibition data. Miller units were calculated using the following formula: […]
(§6) Abs420 is the absorbance of ortho-nitrophenol (ONP). Abs550 is the scatter from cell debris, which, when multiplied by 1.75 approximates the scatter observed at 420 nm. t is the duration of incubation with ONPG in minutes, v is volume of lysate in milliliters, and Abs600 reflects cell density.

ComD1 receptor = ComD1 receptor (Streptococcus pneumoniae serotype 2, UniProt A0A0H2ZM50); experiment: cell-based
Experimental: as §1, §2, §3, §4, §5, §6

[1] = target: ComD1 receptor (S. pneumoniae (endogenous in D39pcomX::lacZ))

Sequence of ComD1 receptor (A0A0H2ZM50 entry or part of it): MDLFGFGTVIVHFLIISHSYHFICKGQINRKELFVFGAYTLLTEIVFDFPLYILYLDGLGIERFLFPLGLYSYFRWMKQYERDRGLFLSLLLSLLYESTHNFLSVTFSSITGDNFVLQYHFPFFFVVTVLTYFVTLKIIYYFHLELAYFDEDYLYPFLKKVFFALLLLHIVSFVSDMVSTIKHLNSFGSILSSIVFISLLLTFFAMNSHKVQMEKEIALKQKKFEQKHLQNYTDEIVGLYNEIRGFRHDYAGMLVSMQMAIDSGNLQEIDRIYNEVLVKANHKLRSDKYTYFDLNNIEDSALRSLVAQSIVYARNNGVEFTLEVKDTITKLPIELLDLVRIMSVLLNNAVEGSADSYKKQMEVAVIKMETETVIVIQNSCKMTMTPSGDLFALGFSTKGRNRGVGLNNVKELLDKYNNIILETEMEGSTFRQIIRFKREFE
Sequence of ComD2 receptor (A0A0H2US84 entry or part of it): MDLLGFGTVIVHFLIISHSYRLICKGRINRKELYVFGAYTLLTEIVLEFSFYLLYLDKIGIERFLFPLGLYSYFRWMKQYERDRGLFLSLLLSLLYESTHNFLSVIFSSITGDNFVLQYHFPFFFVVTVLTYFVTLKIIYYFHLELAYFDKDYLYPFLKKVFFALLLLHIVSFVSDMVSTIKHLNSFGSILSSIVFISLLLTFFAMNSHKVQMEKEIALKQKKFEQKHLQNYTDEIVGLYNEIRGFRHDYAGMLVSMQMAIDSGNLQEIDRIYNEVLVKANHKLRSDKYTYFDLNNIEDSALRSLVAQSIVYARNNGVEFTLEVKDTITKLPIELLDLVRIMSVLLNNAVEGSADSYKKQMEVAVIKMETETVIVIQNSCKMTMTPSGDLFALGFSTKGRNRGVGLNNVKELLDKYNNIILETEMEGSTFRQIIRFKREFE

Row | Compound | EC50 (ComD2 receptor) | EC50 (ComD1 receptor) | ComD2 primary agonism screening: low induction, EC50 not determined (ComD2 receptor; TIGR4pcomX::lacZ, 10 µM peptide, only analogs with greater than 75% activation compared to CSP2 were taken to EC50) | EC50 of activation of pcomX::lacZ (β-galactosidase) in reporter strain D39pcomX::lacZ (group I, ComD1) [1]
1 | CC[C@H](C)[C@H](NC(=O)[C@H](Cc1ccccc1)NC(=O)[C@H](CC(=O)O)NC(=O)[C@H](CCCNC(=N)N)NC(=O)[C@H](Cc1ccccc1)NC(=O)[C@@H](NC(=O)[C@H](CCCCN)NC(=O)[C@H](CO)NC(=O)[C@H](CC(C)C)NC(=O)[C@H](CCCNC(=N)N)NC(=O)[C@H](CCSC)NC(=O)[C@@H](N)CCC(=O)O)c1ccccc1)C(=O)N[C@@H](CC(C)C)C(=O)N[C@@H](CCC(N)=O)C(=O)N[C@@H](CCCNC(=N)N)C(=O)N[C@@H](CCCCN)C(=O)N[C@@H](CCCCN)C(=O)O [CSP1-F7FG] (H-EMRLSK[Phg]FRDFILQRKK-OH; N-terminus assumed) | 828 nM | 81.3 nM |  | 
2 | CC[C@H](C)[C@H](NC(=O)[C@H](Cc1ccccc1)NC(=O)[C@H](CC(=O)O)NC(=O)[C@H](CCCNC(=N)N)NC(=O)[C@H](Cc1ccccc1)NC(=O)[C@H](CCc1ccccc1)NC(=O)[C@H](CCCCN)NC(=O)[C@H](CO)NC(=O)[C@H](CC(C)C)NC(=O)[C@H](CCCNC(=N)N)NC(=O)[C@H](CCSC)NC(=O)[C@@H](N)CCC(=O)O)C(=O)N[C@@H](CC(C)C)C(=O)N[C@@H](CCC(N)=O)C(=O)N[C@@H](CCCNC(=N)N)C(=O)N[C@@H](CCCCN)C(=O)N[C@@H](CCCCN)C(=O)O [CSP1-F7HF] | 317 nM | 81.7 nM |  | 
3 | CC[C@H](C)[C@H](NC(=O)[C@H](Cc1ccccc1)NC(=O)[C@H](CC(=O)O)NC(=O)[C@H](CCCNC(=N)N)NC(=O)[C@@H](NC(=O)[C@H](Cc1ccccc1)NC(=O)[C@H](CCCCN)NC(=O)[C@H](CO)NC(=O)[C@H](CC(C)C)NC(=O)[C@H](CCCNC(=N)N)NC(=O)[C@H](CCSC)NC(=O)[C@@H](N)CCC(=O)O)c1ccccc1)C(=O)N[C@@H](CC(C)C)C(=O)N[C@@H](CCC(N)=O)C(=O)N[C@@H](CCCNC(=N)N)C(=O)N[C@@H](CCCCN)C(=O)N[C@@H](CCCCN)C(=O)O [CSP1-F8FG] (H-EMRLSKF[Phg]RDFILQRKK-OH; N-terminus assumed) |  | 884 nM | –^e | 
4 | CC[C@H](C)[C@H](NC(=O)[C@H](Cc1ccccc1)NC(=O)[C@H](CC(=O)O)NC(=O)[C@H](CCCNC(=N)N)NC(=O)[C@H](CCc1ccccc1)NC(=O)[C@H](Cc1ccccc1)NC(=O)[C@H](CCCCN)NC(=O)[C@H](CO)NC(=O)[C@H](CC(C)C)NC(=O)[C@H](CCCNC(=N)N)NC(=O)[C@H](CCSC)NC(=O)[C@@H](N)CCC(=O)O)C(=O)N[C@@H](CC(C)C)C(=O)N[C@@H](CCC(N)=O)C(=O)N[C@@H](CCCNC(=N)N)C(=O)N[C@@H](CCCCN)C(=O)N[C@@H](CCCCN)C(=O)O [CSP1-F8HF] | > 1000 nM | 43.4 nM |  | 
5 | CC[C@H](C)[C@H](NC(=O)[C@@H](NC(=O)[C@H](CC(=O)O)NC(=O)[C@H](CCCNC(=N)N)NC(=O)[C@H](Cc1ccccc1)NC(=O)[C@H](Cc1ccccc1)NC(=O)[C@H](CCCCN)NC(=O)[C@H](CO)NC(=O)[C@H](CC(C)C)NC(=O)[C@H](CCCNC(=N)N)NC(=O)[C@H](CCSC)NC(=O)[C@@H](N)CCC(=O)O)c1ccccc1)C(=O)N[C@@H](CC(C)C)C(=O)N[C@@H](CCC(N)=O)C(=O)N[C@@H](CCCNC(=N)N)C(=O)N[C@@H](CCCCN)C(=O)N[C@@H](CCCCN)C(=O)O [CSP1-F11FG] (H-EMRLSKFFRD[Phg]ILQRKK-OH; N-terminus assumed) | > 1000 nM | > 1000 nM |  | 
6 | CC[C@H](C)[C@H](NC(=O)[C@H](CCc1ccccc1)NC(=O)[C@H](CC(=O)O)NC(=O)[C@H](CCCNC(=N)N)NC(=O)[C@H](Cc1ccccc1)NC(=O)[C@H](Cc1ccccc1)NC(=O)[C@H](CCCCN)NC(=O)[C@H](CO)NC(=O)[C@H](CC(C)C)NC(=O)[C@H](CCCNC(=N)N)NC(=O)[C@H](CCSC)NC(=O)[C@@H](N)CCC(=O)O)C(=O)N[C@@H](CC(C)C)C(=O)N[C@@H](CCC(N)=O)C(=O)N[C@@H](CCCNC(=N)N)C(=O)N[C@@H](CCCCN)C(=O)N[C@@H](CCCCN)C(=O)O [CSP1-F11HF] | > 1000 nM | 65.8 nM |  | 
7 | CCCC[C@H](NC(=O)[C@H](Cc1ccccc1)NC(=O)[C@H](CC(=O)O)NC(=O)[C@H](CCCNC(=N)N)NC(=O)[C@H](Cc1ccccc1)NC(=O)[C@H](Cc1ccccc1)NC(=O)[C@H](CCCCN)NC(=O)[C@H](CO)NC(=O)[C@H](CC(C)C)NC(=O)[C@H](CCCNC(=N)N)NC(=O)[C@H](CCSC)NC(=O)[C@@H](N)CCC(=O)O)C(=O)N[C@@H](CC(C)C)C(=O)N[C@@H](CCC(N)=O)C(=O)N[C@@H](CCCNC(=N)N)C(=O)N[C@@H](CCCCN)C(=O)N[C@@H](CCCCN)C(=O)O [CSP1-I12NL] (H-EMRLSKFFRDF[Nle]LQRKK-OH; N-terminus assumed) | > 1000 nM | 6.68 nM |  | 
8 | CCC[C@H](NC(=O)[C@H](Cc1ccccc1)NC(=O)[C@H](CC(=O)O)NC(=O)[C@H](CCCNC(=N)N)NC(=O)[C@H](Cc1ccccc1)NC(=O)[C@H](Cc1ccccc1)NC(=O)[C@H](CCCCN)NC(=O)[C@H](CO)NC(=O)[C@H](CC(C)C)NC(=O)[C@H](CCCNC(=N)N)NC(=O)[C@H](CCSC)NC(=O)[C@@H](N)CCC(=O)O)C(=O)N[C@@H](CC(C)C)C(=O)N[C@@H](CCC(N)=O)C(=O)N[C@@H](CCCNC(=N)N)C(=O)N[C@@H](CCCCN)C(=O)N[C@@H](CCCCN)C(=O)O [CSP1-I12NV] (H-EMRLSKFFRDF[Nva]LQRKK-OH; N-terminus assumed) | 853 nM | 13.8 nM |  | 
9 | CCCC[C@H](NC(=O)[C@H](CCCNC(=N)N)NC(=O)[C@H](CCSC)NC(=O)[C@@H](N)CCC(=O)O)C(=O)N[C@@H](CO)C(=O)N[C@@H](CCCCN)C(=O)N[C@@H](Cc1ccccc1)C(=O)N[C@@H](Cc1ccccc1)C(=O)N[C@@H](CCCNC(=N)N)C(=O)N[C@@H](CC(=O)O)C(=O)N[C@@H](Cc1ccccc1)C(=O)N[C@H](C(=O)N[C@@H](CC(C)C)C(=O)N[C@@H](CCC(N)=O)C(=O)N[C@@H](CCCNC(=N)N)C(=O)N[C@@H](CCCCN)C(=O)N[C@@H](CCCCN)C(=O)O)[C@@H](C)CC [CSP1-L4NL] | > 1000 nM | 13.5 nM |  | 
10 | CCC[C@H](NC(=O)[C@H](CCCNC(=N)N)NC(=O)[C@H](CCSC)NC(=O)[C@@H](N)CCC(=O)O)C(=O)N[C@@H](CO)C(=O)N[C@@H](CCCCN)C(=O)N[C@@H](Cc1ccccc1)C(=O)N[C@@H](Cc1ccccc1)C(=O)N[C@@H](CCCNC(=N)N)C(=O)N[C@@H](CC(=O)O)C(=O)N[C@@H](Cc1ccccc1)C(=O)N[C@H](C(=O)N[C@@H](CC(C)C)C(=O)N[C@@H](CCC(N)=O)C(=O)N[C@@H](CCCNC(=N)N)C(=O)N[C@@H](CCCCN)C(=O)N[C@@H](CCCCN)C(=O)O)[C@@H](C)CC [CSP1-L4NV] (H-EMR[Nva]SKFFRDFILQRKK-OH; N-terminus assumed) | 627 nM | 5.74 nM |  | 
11 | CSP1-F7Y (peptide) |  |  |  | 344 nM
12 | CSP1-F8FG (peptide) |  |  |  | 884 nM
13 | CSP1-F8Y (peptide) |  |  |  | 85 nM
14 | CSP1-F11Y (peptide) |  |  |  | 95.6 nM
15 | CSP1-I12V (peptide) |  |  |  | 15.3 nM
16 | CSP1-L4V (peptide) |  |  |  | 113 nM
17 | CSP1-L13V (peptide) |  |  |  | 31 nM
18 | competence stimulating peptide 1 (CSP1) (from UniProt P60242 25-41) |  |  |  | 10.3 nM
